{"source": "paper PMC6669322", "about": "“Small Molecule Binding to Alzheimer Risk Factor CD33 Promotes Aβ Phagocytosis” (iScience, 2019)", "key": {"[1]": {"test_system": "human CD33", "design": "method as in Rillahan et al., 2014", "conditions": "in words; ref Rillahan et al., 2014; cited from earlier work"}, "[2]": {"target": "CD33 R119A (Homo sapiens, UniProt P20138, R119A)", "sequence (P20138 18-143 R119A)": "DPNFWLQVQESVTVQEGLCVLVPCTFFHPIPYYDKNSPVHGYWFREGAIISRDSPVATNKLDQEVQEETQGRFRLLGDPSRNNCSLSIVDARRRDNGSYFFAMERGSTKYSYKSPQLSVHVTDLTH", "assay": "surface plasmon resonance (SPR), CD33 R119A mutant", "assay_type": "binding", "design": "DNA encoding D18 to H143 of human CD33; octa-histidine tag with TEV protease cleavage site (N); made in house; host or cells: E. coli BL21* (the general protein production text; the R119A protein is not described on its own)", "conditions": "P22 as analyte, captured CD33 R119A", "text": "We next performed surface plasmon resonance (SPR) measurements on P22 binding to CD33 wild-type, and selected mutants, to obtain detailed kinetic data (see Transparent Methods). The CD33 V-set domain has a free cysteine residue (C36), which caused anomalous results in some of our SPR experiments due to disulfide-linked oligomers forming in solution.\nP22 (β-D-Glucopyranoside, 2-aminoethyl O-[N-[2-(4-cyclohexyl-1H-1,2,3-triazol-1-yl)acetyl]-9-deoxy-9-[(4-hydroxy-3,5-dimethylbenzoyl)amino]-α-neuraminosyl] (2→6)-O-β-D-galactopyranosyl-(1→4)-; CAS registry number [1809735-27-0]) was synthesized as described by Paulson and co-workers (Rillahan et al., 2014). Biotinylated P22 (Figure S1C) was prepared by treatment of a solution of P22 (12 mg, 0.012 mmol) in dimethylformamide (1 mL), with DIPEA (8.6 µL, […]) followed by addition of (+)- biotin N-hydroxysuccinimide ester (4.2 mg, 0.012 mmol), the resulting reaction mixture was then stirred for 2 h at RT. After which the reaction mixture was concentrated in vacuo and purified by reverse phase, performed via preparative HPLC (Stationary phase: RP XBridge Prep C18 OBD- 5µm,19x150mm, Mobile phase: 0.25% NH4HCO3 solution in water, CH3CN) to afford Biotin-P22 (9 mg, yield 60.9%). […]"}}, "data": [{"smiles": "Cc1cc(C(=O)NC[C@@H](O)[C@@H](O)[C@@H]2O[C@@](OC[C@H]3O[C@@H](O[C@H]4[C@H](O)[C@@H](O)[C@H](OCCN)O[C@@H]4CO)[C@H](O)[C@@H](O)[C@H]3O)(C(=O)O)C[C@H](O)[C@H]2NC(=O)Cn2cc(C3CCCCC3)nn2)cc(C)c1O", "note": "[P22, β-D-Glucopyranoside, 2-aminoethyl O-[N-[2-(4-cyclohexyl-1H-1,2,3-triazol-1-yl)acetyl]-9-deoxy-9-[(4-hydroxy-3,5-dimethylbenzoyl)amino]-α-neuraminosyl] (2→6)-O-β-D-galactopyranosyl-(1→4)-]", "values": [{"measurement": "specificity for human CD33 over other human Siglecs", "setting": "[1]", "result": "high specificity"}, {"measurement": "binding observed by SPR", "setting": "[2]", "result": "no binding"}]}]}
